From ChEMBL document CHEMBL4507279, “Data for DCP probe BI-9627” (2021)

Columns and labels:
[1] = target: 3-phosphoinositide-dependent protein kinase 1 (Homo sapiens) (UniProt O15530); details: Compound concentration 1000.0 nM
[2] = target: Tyrosine-protein kinase ZAP-70 (Homo sapiens) (UniProt P43403); details: Compound concentration 1000.0 nM
[3] = target: Ephrin type-B receptor 4 (Homo sapiens) (UniProt P54760); details: Compound concentration 1000.0 nM
[4] = target: Serine/threonine-protein kinase LATS2 (Homo sapiens) (UniProt Q9NRM7); details: Compound concentration 1000.0 nM
[5] = target: D(1B) dopamine receptor (Homo sapiens) (UniProt P21918); details: Compound concentration 10.0 uM
[6] = target: GABA-A receptor; anion channel (Rattus norvegicus) (UniProt O09028+P15431+P18506+P18508+P19969+P20236+P23574+P23576+P28471+P28473+P30191+P62813+P63079+P63138+Q91ZM7+Q9ES14); details: Compound concentration 10.0 uM
[7] = target: Protein kinase C delta type (Homo sapiens) (UniProt Q05655); details: Compound concentration 1000.0 nM
[8] = target: Ribosomal protein S6 kinase alpha-6 (Homo sapiens) (UniProt Q9UK32); details: Compound concentration 1000.0 nM
[9] = target: Serine/threonine-protein kinase Sgk1 (Homo sapiens) (UniProt O00141); details: Compound concentration 1000.0 nM
[10] = target: Serine/threonine-protein kinase 17B (Homo sapiens) (UniProt O94768); details: Compound concentration 1000.0 nM
[11] = target: Mitogen-activated protein kinase 6 (Homo sapiens) (UniProt Q16659); details: Compound concentration 1000.0 nM
[12] = tested on: Tyrosine-protein kinase ABL1 (Homo sapiens), P00519 [H396P]; details: Compound concentration 1000.0 nM
[13] = target: Fibroblast growth factor receptor 2 (Homo sapiens) (UniProt P21802); details: Compound concentration 1000.0 nM
[14] = target: RAC-beta serine/threonine-protein kinase (Homo sapiens) (UniProt P31751); details: Compound concentration 1000.0 nM
[15] = tested on: Phosphatidylinositol 4,5-bisphosphate 3-kinase catalytic subunit alpha isoform (Homo sapiens), P42336 [I800L]; details: Compound concentration 1000.0 nM
[16] = tested on: Phosphatidylinositol 4,5-bisphosphate 3-kinase catalytic subunit alpha isoform (Homo sapiens), P42336 [Q546K]; details: Compound concentration 1000.0 nM
[17] = target: Myosin light chain kinase, smooth muscle (Homo sapiens) (UniProt Q15746); details: Compound concentration 1000.0 nM
[18] = tested on: Leucine-rich repeat serine/threonine-protein kinase 2 (Homo sapiens), Q5S007 [G2019S]; details: Compound concentration 1000.0 nM
[19] = target: Casein kinase II subunit alpha (Homo sapiens) (UniProt P68400); details: Compound concentration 1000.0 nM
[20] = target: Serine/threonine-protein kinase MRCK beta (Homo sapiens) (UniProt Q9Y5S2); details: Compound concentration 1000.0 nM
[21] = target: cAMP-dependent protein kinase catalytic subunit PRKX (Homo sapiens) (UniProt P51817); details: Compound concentration 1000.0 nM
[22] = target: Non-receptor tyrosine-protein kinase TNK1 (Homo sapiens) (UniProt Q13470); details: Compound concentration 1000.0 nM
[23] = target: Tyrosine-protein kinase TXK (Homo sapiens) (UniProt P42681); details: Compound concentration 1000.0 nM
[24] = target: TGF-beta receptor type-2 (Homo sapiens) (UniProt P37173); details: Compound concentration 1000.0 nM
[25] = target: AP2-associated protein kinase 1 (Homo sapiens) (UniProt Q2M2I8); details: Compound concentration 1000.0 nM
[26] = tested on: Tyrosine-protein kinase ABL1 (Homo sapiens), P00519 [T315I]; details: Compound concentration 1000.0 nM
[27] = target: Dual specificity mitogen-activated protein kinase kinase 3 (Homo sapiens) (UniProt P46734); details: Compound concentration 1000.0 nM
[28] = target: Mitogen-activated protein kinase kinase kinase 19 (Homo sapiens) (UniProt Q56UN5); details: Compound concentration 1000.0 nM
[29] = tested on: Receptor-type tyrosine-protein kinase FLT3 (Homo sapiens), P36888 [UNDEFINED MUTATION]; details: Compound concentration 1000.0 nM
[30] = target: RAC-gamma serine/threonine-protein kinase (Homo sapiens) (UniProt Q9Y243); details: Compound concentration 1000.0 nM
[31] = target: Tyrosine-protein kinase receptor UFO (Homo sapiens) (UniProt P30530); details: Compound concentration 1000.0 nM
[32] = target: Tyrosine-protein kinase CSK (Homo sapiens) (UniProt P41240); details: Compound concentration 1000.0 nM
[33] = target: Mitogen-activated protein kinase 7 (Homo sapiens) (UniProt Q13164); details: Compound concentration 1000.0 nM
[34] = target: Casein kinase I isoform epsilon (Homo sapiens) (UniProt P49674); details: Compound concentration 1000.0 nM
[35] = target: Serine/threonine-protein kinase Nek4 (Homo sapiens) (UniProt P51957); details: Compound concentration 1000.0 nM
[36] = target: Serine/threonine-protein kinase D1 (Homo sapiens) (UniProt Q15139); details: Compound concentration 1000.0 nM
[37] = target: Serine/threonine-protein kinase MARK1 (Homo sapiens) (UniProt Q9P0L2); details: Compound concentration 1000.0 nM
[38] = target: Ribosomal protein S6 kinase alpha-4 (Homo sapiens) (UniProt O75676); details: Compound concentration 1000.0 nM
[39] = tested on: Phosphatidylinositol 4,5-bisphosphate 3-kinase catalytic subunit alpha isoform (Homo sapiens), P42336 [H1047Y]; details: Compound concentration 1000.0 nM
[40] = target: Cyclin-dependent kinase 17 (Homo sapiens) (UniProt Q00537); details: Compound concentration 1000.0 nM
[41] = target: Dual specificity protein kinase TTK (Homo sapiens) (UniProt P33981); details: Compound concentration 1000.0 nM
[42] = target: Serine/threonine-protein kinase DCLK2 (Homo sapiens) (UniProt Q8N568); details: Compound concentration 1000.0 nM
[43] = target: Myosin light chain kinase family member 4 (Homo sapiens) (UniProt Q86YV6); details: Compound concentration 1000.0 nM

Dual specificity protein kinase TTK (Homo sapiens), sequence (P33981 whole entry): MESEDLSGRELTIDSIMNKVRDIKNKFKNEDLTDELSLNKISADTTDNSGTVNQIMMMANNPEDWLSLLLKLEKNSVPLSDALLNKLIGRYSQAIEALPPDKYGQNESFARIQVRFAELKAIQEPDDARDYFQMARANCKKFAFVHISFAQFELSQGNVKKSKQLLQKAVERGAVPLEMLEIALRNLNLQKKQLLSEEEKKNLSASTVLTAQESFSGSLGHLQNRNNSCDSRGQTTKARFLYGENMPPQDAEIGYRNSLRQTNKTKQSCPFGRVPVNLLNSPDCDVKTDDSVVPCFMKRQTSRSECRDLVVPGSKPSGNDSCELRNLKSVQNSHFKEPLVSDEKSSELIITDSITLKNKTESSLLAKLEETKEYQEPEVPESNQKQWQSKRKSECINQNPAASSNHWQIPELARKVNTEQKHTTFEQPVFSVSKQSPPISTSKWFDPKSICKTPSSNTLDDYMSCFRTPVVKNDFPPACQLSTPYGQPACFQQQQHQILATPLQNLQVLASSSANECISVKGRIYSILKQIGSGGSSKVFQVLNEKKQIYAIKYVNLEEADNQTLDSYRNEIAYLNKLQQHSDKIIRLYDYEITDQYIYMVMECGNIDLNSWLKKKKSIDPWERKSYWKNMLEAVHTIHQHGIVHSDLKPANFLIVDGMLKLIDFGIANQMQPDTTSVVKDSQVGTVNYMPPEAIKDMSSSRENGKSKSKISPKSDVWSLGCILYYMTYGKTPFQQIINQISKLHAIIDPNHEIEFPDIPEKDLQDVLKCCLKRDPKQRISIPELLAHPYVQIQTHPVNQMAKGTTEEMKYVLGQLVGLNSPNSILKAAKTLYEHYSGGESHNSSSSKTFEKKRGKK
Receptor-type tyrosine-protein kinase FLT3 (Homo sapiens), P36888 [UNDEFINED MUTATION], sequence (P36888 whole entry, looked up, change not shown): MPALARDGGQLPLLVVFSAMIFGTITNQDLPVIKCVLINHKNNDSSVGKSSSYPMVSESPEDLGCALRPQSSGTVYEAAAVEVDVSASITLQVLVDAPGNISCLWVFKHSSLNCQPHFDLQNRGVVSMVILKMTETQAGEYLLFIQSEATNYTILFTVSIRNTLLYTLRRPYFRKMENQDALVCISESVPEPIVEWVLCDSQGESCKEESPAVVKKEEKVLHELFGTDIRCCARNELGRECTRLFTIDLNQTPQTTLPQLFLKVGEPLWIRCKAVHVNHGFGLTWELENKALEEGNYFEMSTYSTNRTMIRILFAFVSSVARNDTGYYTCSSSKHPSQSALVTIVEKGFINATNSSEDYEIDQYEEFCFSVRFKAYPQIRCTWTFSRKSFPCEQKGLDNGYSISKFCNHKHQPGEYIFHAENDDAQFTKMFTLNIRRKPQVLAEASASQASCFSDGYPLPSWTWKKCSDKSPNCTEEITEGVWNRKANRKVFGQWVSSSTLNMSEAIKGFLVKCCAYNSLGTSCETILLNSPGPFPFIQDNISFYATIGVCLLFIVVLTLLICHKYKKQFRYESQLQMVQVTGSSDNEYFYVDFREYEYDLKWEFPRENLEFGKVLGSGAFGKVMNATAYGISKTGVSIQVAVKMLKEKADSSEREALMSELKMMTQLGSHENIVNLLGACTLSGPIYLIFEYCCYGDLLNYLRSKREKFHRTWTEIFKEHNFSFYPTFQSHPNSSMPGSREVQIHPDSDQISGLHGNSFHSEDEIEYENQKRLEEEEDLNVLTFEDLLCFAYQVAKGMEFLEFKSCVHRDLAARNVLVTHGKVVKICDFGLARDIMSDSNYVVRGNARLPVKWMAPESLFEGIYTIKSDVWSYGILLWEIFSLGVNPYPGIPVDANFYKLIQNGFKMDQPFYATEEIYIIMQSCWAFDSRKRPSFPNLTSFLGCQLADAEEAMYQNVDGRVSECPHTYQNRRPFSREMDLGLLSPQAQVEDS
Protein kinase C delta type (Homo sapiens), sequence (Q05655 whole entry, looked up): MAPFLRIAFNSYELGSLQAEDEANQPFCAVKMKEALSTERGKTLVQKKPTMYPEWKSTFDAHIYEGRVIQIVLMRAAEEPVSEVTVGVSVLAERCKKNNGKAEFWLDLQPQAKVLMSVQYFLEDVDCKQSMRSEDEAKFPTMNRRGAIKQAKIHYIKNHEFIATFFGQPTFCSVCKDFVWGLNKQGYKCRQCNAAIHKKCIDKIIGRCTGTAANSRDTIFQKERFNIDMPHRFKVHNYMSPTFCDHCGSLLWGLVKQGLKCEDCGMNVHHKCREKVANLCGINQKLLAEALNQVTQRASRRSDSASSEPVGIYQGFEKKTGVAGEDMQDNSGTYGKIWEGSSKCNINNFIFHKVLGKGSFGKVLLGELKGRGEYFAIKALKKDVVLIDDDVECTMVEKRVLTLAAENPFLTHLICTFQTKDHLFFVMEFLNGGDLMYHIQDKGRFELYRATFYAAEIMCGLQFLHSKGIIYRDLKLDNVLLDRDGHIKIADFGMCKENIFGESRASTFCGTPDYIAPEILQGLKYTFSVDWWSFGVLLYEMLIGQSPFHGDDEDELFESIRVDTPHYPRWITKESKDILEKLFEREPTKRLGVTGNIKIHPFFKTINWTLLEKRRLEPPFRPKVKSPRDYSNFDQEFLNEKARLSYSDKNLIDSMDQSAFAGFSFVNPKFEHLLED
Phosphatidylinositol 4,5-bisphosphate 3-kinase catalytic subunit alpha isoform (Homo sapiens), P42336 [I800L], sequence (P42336 whole entry I800L, canonical isoform): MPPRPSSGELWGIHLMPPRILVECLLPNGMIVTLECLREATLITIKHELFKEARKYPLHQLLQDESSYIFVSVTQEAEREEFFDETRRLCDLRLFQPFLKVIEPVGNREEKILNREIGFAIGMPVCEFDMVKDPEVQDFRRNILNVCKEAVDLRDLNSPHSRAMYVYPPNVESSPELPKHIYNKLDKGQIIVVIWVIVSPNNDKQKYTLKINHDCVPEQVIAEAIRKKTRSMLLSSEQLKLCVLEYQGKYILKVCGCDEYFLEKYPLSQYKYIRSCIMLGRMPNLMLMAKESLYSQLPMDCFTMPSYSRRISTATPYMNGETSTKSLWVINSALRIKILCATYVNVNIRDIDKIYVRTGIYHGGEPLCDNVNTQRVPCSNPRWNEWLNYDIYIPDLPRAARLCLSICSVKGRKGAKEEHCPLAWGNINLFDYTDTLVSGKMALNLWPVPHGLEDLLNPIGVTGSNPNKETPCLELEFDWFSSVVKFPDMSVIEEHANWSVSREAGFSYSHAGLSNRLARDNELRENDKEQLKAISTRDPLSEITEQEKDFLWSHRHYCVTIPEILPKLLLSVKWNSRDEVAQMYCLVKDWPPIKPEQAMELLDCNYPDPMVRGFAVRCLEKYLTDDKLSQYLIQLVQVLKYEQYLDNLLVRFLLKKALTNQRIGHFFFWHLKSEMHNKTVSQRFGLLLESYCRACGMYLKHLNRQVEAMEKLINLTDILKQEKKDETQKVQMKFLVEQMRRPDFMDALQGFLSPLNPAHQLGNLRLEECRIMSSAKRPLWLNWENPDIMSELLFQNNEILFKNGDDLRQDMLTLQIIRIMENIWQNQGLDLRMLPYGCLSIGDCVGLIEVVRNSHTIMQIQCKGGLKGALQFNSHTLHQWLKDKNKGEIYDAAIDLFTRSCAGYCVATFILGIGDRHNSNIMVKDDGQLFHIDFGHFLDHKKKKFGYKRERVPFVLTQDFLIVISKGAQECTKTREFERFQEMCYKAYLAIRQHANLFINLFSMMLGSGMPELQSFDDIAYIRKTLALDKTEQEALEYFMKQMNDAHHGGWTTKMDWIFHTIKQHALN
Serine/threonine-protein kinase Sgk1 (Homo sapiens), sequence (O00141 whole entry): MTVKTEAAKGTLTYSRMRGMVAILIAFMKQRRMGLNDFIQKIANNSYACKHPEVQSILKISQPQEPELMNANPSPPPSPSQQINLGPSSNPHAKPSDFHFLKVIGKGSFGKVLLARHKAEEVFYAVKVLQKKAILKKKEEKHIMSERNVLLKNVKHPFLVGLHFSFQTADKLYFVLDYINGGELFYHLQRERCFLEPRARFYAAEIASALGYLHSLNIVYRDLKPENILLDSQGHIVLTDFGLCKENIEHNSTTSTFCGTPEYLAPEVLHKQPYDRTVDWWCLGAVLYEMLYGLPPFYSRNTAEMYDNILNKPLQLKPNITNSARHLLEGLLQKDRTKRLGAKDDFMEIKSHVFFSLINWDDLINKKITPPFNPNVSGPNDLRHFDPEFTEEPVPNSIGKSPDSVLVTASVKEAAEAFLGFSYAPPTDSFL
Tyrosine-protein kinase TXK (Homo sapiens), sequence (P42681 whole entry): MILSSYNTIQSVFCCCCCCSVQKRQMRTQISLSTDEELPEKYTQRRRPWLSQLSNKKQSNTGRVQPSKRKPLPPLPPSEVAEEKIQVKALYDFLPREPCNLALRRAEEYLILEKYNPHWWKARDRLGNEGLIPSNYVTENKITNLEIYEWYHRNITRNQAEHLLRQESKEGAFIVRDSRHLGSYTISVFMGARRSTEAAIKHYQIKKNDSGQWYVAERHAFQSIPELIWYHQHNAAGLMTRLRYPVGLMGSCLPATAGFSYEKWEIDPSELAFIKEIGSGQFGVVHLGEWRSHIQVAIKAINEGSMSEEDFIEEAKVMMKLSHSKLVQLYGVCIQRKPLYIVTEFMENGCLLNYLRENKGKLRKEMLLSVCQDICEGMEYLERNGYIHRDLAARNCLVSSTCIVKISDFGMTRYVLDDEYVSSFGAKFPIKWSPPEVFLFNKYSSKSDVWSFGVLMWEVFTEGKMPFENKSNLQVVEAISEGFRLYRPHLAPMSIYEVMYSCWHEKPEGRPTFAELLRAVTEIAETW
Casein kinase II subunit alpha (Homo sapiens), sequence (P68400 whole entry, looked up): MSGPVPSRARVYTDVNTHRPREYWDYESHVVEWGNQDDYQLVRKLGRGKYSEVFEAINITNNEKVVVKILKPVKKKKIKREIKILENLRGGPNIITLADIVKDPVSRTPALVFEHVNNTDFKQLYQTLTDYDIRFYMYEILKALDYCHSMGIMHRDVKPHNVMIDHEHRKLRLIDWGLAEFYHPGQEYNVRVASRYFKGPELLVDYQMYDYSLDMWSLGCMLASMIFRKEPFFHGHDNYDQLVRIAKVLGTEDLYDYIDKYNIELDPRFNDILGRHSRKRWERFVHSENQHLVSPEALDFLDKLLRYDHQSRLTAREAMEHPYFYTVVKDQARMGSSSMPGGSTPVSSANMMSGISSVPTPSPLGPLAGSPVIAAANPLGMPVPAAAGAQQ

CC(=O)N1CCC(c2ccc(C(=O)NC(=N)N)cc2C(F)(F)F)CC1 [BI 9627]
inactive: residual activity [1] 100% | residual activity [2] 100% | residual activity [3] 100% | residual activity [4] 100% | inhibition [5] -8.21% | inhibition [6] 13.9% | residual activity [7] 100% | residual activity [8] 100% | residual activity [9] 100% | residual activity [10] 100% | residual activity [11] 100% | residual activity [12] 86% | residual activity [13] 100% | residual activity [14] 99% | residual activity [15] 90% | residual activity [16] 100% | residual activity [17] 90% | residual activity [18] 100% | residual activity [19] 95% | residual activity [20] 100% | residual activity [21] 100% | residual activity [22] 89% | residual activity [23] 100% | residual activity [24] 100% | residual activity [25] 100% | residual activity [26] 95% | residual activity [27] 100% | residual activity [28] 100% | residual activity [29] 80% | residual activity [30] 100% | residual activity [31] 100% | residual activity [32] 100% | residual activity [33] 100% | residual activity [34] 100% | residual activity [35] 100% | residual activity [36] 100% | residual activity [37] 100% | residual activity [38] 100% | residual activity [39] 100% | residual activity [40] 100% | residual activity [41] 100% | residual activity [42] 93% | residual activity [43] 100%

CC(=O)N1CCC(c2ccc(C(=O)NC3=NCCN3)cc2C(F)(F)F)CC1 [BI 0054]
inactive: residual activity [1] 94% | residual activity [2] 97% | residual activity [3] 100% | residual activity [4] 91% | inhibition [5] -9.82% | inhibition [6] 25.3% | residual activity [7] 100% | residual activity [8] 98% | residual activity [9] 100% | residual activity [10] 100% | residual activity [11] 100% | residual activity [12] 100% | residual activity [13] 86% | residual activity [14] 91% | residual activity [15] 94% | residual activity [16] 100% | residual activity [17] 90% | residual activity [18] 100% | residual activity [19] 86% | residual activity [20] 100% | residual activity [21] 100% | residual activity [22] 84% | residual activity [23] 82% | residual activity [24] 100% | residual activity [25] 100% | residual activity [26] 92% | residual activity [27] 87% | residual activity [28] 100% | residual activity [29] 88% | residual activity [30] 100% | residual activity [31] 100% | residual activity [32] 100% | residual activity [33] 89% | residual activity [34] 100% | residual activity [35] 100% | residual activity [36] 100% | residual activity [37] 100% | residual activity [38] 81% | residual activity [39] 100% | residual activity [40] 89% | residual activity [41] 100% | residual activity [42] 88% | residual activity [43] 100%
